These results are taken from US4555403A, “Pharmacologically active peptides and medicaments containing the same” (priority 1979, dated 1985).

Data set [1] in a line: stability of opiate-like activity upon incubation with rat brain homogenate and brain-supernate. In kind it is in vitro ADME. To be noted: for opiate-like activity after 30 minutes of incubation / opiate-like activity after 120 minutes of incubation: brain homogenate and brain-supernate, 37° C. On the procedure:
All incubations of the substances with brain homogenate and brain-supernate take place at 37° C. The respective incubation time is terminated by heating for 10 min. at a temperature of 95° C. This heating up to 95° C. serves to destroy enzymes which are still present and which might be detrimental for the biological procedure for proving the opiate-like activity.
1-2 mg each of the β-casomorphin-5 and of the D-Ala^2 -β-casomorphin-5 according to the invention are put into 50 μl of H2 O and mixed with 300 μl each of brain homogenate and brain-supernate. A sample of each is immediately heated from 37° C. up to 95° C. prior to the incubation. Thus these samples are in contact with the active enzymes only for a very short time and their content of opiate-like activity serves as a reference value at a zero point of time.
After 15, 30, 60, and 120 min. each, further samples of the two incubated opiates are taken from the incubator and heated up to 95° C.
The guinea pig intestine test described by Kosterlitz et al supra, serves as a proving system, which also includes the opiate amounts quantitatively. […]

The nature of data set [2]: stability of opiate-like activity towards rat blood plasma. The format is in vitro ADME. To be noted: for stability of opiate-like activity towards blood plasma: 300 μl freshly obtained rat blood plasma, 30 minutes stated for β-casomorphin-5. As for the experimental part:
Analogously to the above-mentioned incubation example we tested the stability of the opiate-like activity towards blood plasma. Instead of 300 μl of homogenate, we employed 300 μl of freshly obtained rat blood plasma.

Data set [3] can be described thus: analgetic effect after parenteral or oral application in rats. The format is in vivo. Conditions: up to 150 mg per kg of body weight. On the procedure:
The dose in these tests amounted up to 150 mg per kg of body weight of the rats. This disadvantage of the known peptides can be partially or completely attributed to inactivation of the substance in the blood and/or the brain.

For data set [4] the following is noted: 0.35 μmol into the ventricle system of the brain, rats; cited from earlier work.

Non-standard residues stand in square brackets, D forms with d. Residues, ends and D or L forms follow the SMILES beside them. Bounds are passed on as bounds.

Consider `COC(=O)CNC(=O)[C@@H]1CCCN1C(=O)[C@H](Cc1ccccc1)NC(=O)[C@@H](C)NC(=O)[C@@H](N)Cc1ccc(O)cc1` [D-Ala^2 -β-casomorphin-5, Tyr-D-Ala-Phe-Pro-Gly-methylester] (H-Y[dA]FPG-OMe), for which, in data set [1], the “opiate-like activity after 30 minutes of incubation” value is given as “still could be proven” and the “opiate-like activity after 120 minutes of incubation” value is given as “still could be proven”. Moreover, in data set [2], the “stability of opiate-like activity towards blood plasma” value is listed as “retained its full activity”.

Regarding `COC(=O)CNC(=O)[C@@H]1CCCN1C(=O)[C@H](Cc1ccccc1)NC(=O)[C@@H](CCCNC(=N)N)NC(=O)[C@@H](N)Cc1ccc(O)cc1` [D-Arg^2 -β-casomorphin-5, Tyr-D-Arg-Phe-Pro-Gly-methylester] (H-Y[dR]FPG-OMe), in data set [1], the “opiate-like activity after 30 minutes of incubation” value is recorded as “still could be proven” and the “opiate-like activity after 120 minutes of incubation” value is listed as “still could be proven”.

With `COC(=O)CNC(=O)[C@@H]1CCCN1C(=O)[C@H](Cc1ccccc1)NC(=O)[C@@H](CCSC)NC(=O)[C@@H](N)Cc1ccc(O)cc1` [D-Met^2 -β-casomorphin-5, Tyr-D-Met-Phe-Pro-Gly-methylester] (H-Y[dM]FPG-OMe), in data set [1], the “opiate-like activity after 30 minutes of incubation” value is on record as “still could be proven” and the “opiate-like activity after 120 minutes of incubation” value is recorded as “still could be proven”.

As to `COC(=O)CNC(=O)[C@@H]1CCCN1C(=O)[C@H](Cc1ccccc1)NC(=O)[C@@H](CO)NC(=O)[C@@H](N)Cc1ccc(O)cc1` [D-Ser^2 -β-casomorphin-5, Tyr-D-Ser-Phe-Pro-Gly-methylester] (H-Y[dS]FPG-OMe), in data set [1], the “opiate-like activity after 30 minutes of incubation” value was “still could be proven” and the “opiate-like activity after 120 minutes of incubation” value is on record as “still could be proven”.

For “Tyr-Pro-Phe-Pro-Gly (YPFPG; printed: Tyr-Pro-Phe-Pro-Gly) [β-casomorphin-5]”, in data set [1], the “opiate-like activity after 30 minutes of incubation” value is on record as “did not show any opiate-like activity any longer”. Moreover, the “incubation period after which opiate-like activity disappears” value in data set [1] (rat brain homogenate) was found to be 15 min. For the same molecule, the “stability of opiate-like activity towards blood plasma” value in data set [2] is “already destroyed”. The “incubation period after which opiate-like activity disappears” value in data set [2] (blood plasma) amounted to 15 min. For the same molecule, in data set [3], the analgetic effect result is recorded as “does not show any analgetic effect”. Further, in data set [4], the opiate-like analgesia result is “strong opiate-like analgesia”, the “time after which analgesia completely disappeared” value is 60 min and the “time to maximum effectiveness of analgesia” value is no more than 10 min.
